Values of other authors, collected in patent US5523456A, “Inhibitors of farnesyl-protein transferase” (Merck & Co., Inc., priority 1994, dated 1996).

Tested on: Ras farnesylation
Settings: Hancock et al.; Casey et al.; Schafer et al.

SMILES	Inhibition of Ras farnesylation in vivo
CC[C@H](C)C(=O)O[C@H]1CCC=C2C=C[C@H](C)[C@H](CC[C@@H]3C[C@@H](O)CC(=O)O3)[C@H]21 [compactin]	Inhibition of Ras farnesylation in vivo has been demonstrated
CC[C@H](C)C(=O)O[C@H]1C[C@@H](C)C=C2C=C[C@H](C)[C@H](CC[C@@H]3C[C@@H](O)CC(=O)O3)[C@H]21 [lovastatin]	Inhibition of Ras farnesylation in vivo has been demonstrated
